Measured values as given in patent US20180353501A1 (Arvinas, Inc., priority 2017, published 2018).

Tests used:
Format in all cases: cell-based
cMET = molecular target: T1, cMET (Homo sapiens, UniProt P08581); experiment: Cellular assay of target protein degradation (MDA-MB-231 cells, ELISA)
T1 construct: endogenous in cells; host or cells: MDA-MB-231
Experimental: (§1) Protocol of the cellular assay of target protein degradation (MDA-MB-231 cells, ELISA).
(§2) For detection Cell Signaling PathScan Sandwich ELISA Catalog#12850 was used. MDA-MB-231 cells and […] were cultured in ATCC DMEM+ATCC FBS and plated 40,000/well 100 μl/well in RPMI P/S with 5% CSS Omega (bovine) serum into a 96 well plate. The cells were grown for a minimum of 3 days, dosed with compounds in 0.1% DMSO (diluted with 5% CSS) and incubated with aspiration for 4 hours. 100 μl of 1× Cell Signaling lysis buffer #9803 (36 mL dH2O+4 mL Cell Signaling lysis buffer) was added. The incubation was placed on cold room shaker for 10 minutes at speed 8-9.5 μl to 100 μL of Diluent was transferred to ELISA plate (0.15 μg/mL-0.075 μg/mL) and stored at 4° C. overnight on cold room shaker speed 5 (gentle swirl) and then shaken next morning at 37° C. for 30 minutes. The preparation was washed 4×200 μl with ELISA wash buffer and aspirated with eight-channel aspirator. 100 μl/well of target protein detection antibody was added after, which the preparation was covered and shaken at 37° C. for 1 hour. 100 μl TMB was added, and the mixture was shaken for 5 min while under observation. When TMB turned light blue, 100 μl of Stop solution was added, and the mixture was shaken and read at 450 nm. Also read at 562 nm for background subtraction.

JNK2 = experiment: Western blot MAPK family degradation selectivity, MDA-MB-231 cells; settings: increasing concentrations
Description: (§3) FIGS. 12A, 12B, and 12C. Characterization of MAPK family degradation selectivity (related to FIGS. 9A, 9B, 9C, 13A, 13B, 13C, and 13D). (A) p38 MAPK family members (α, β, δ, γ) were aligned using the T-Coffee multiple sequence alignment server. Output results were then colored according to conservation (dark turquoise) and identity (lighter shades of turquoise) in Jalview. (B) Table summarizing pairwise sequence alignments (obtained in Jalview) and structural alignments for Ca atoms (obtained in PyMOL) using the doublyphosphorylated (pTGpY) active conformations of p38δ (PDB: 4MYG), p38α (PDB: 3PY3), and p38γ (PDB: 1CM8). No active conformation crystal structure of p38β currently exists. […] MAPK families are also divided based on their phosphorylation lip motif, (pTxpY). Note: JNK1 and JNK2 are expressed as two alternatively-spliced forms. JNK3 was not expressed in these cells.
(§4) To address the mechanistic questions surrounding PROTAC substrate specificity was assessed by synthesizing eight foretinib-based PROTACs that vary by linker length and by orientation of the VHL-recruiting molecule. PROTACs 1 and 48-50 (termed the ‘amide series’) were constructed using the previously-characterized “left-hand side” amide as a connection point for linker attachment to the VHL ligand, while PROTACs 5 and 45-47 (termed the ‘phenyl series’) incorporated an under-explored “right-hand side” phenyl ring attachment point of the linker to the VHL ligand (FIGS. 9A and 9B). […] PROTACs synthesized with different linker lengths, using two different points of attachment to the VHL-recruiting ligand promote distinct E3 ligase interfaces with a given p38 isoform, thereby enabling potential degradation selectivity. Indeed, this strategy of differential orientation of recruited VHL coupled with different PROTAC linker lengths enabled the identification of two PROTACs that each selectively degrade only a single p38 MAPK isoform in MDA-MB-231 cells (FIG. 9C). The examplary compound 50 and exemplary compound 46 result in potent and selective degradation of p38α and p38δ, respectively, without an observable “hook effect” within the tested dose range. […] Crucially, the DC50 for exemplary compound 50 on p38δ is >5 μM, as is the DC50 of exemplary compound 46 for p38α. Additionally, neither exemplary PROTAC degrades either of the two remaining p38 MAPK isoforms (β and γ), despite high sequence and structural conservation.
(§5) Lysates from MDA-MB-231 cells were washed once with ice cold PBS (1×), followed by lysis in buffer containing 25 mM Tris [pH 7.5], 0.25% sodium deoxycholate, 1% Triton X-100, supplemented with 1× protease inhibitor cocktail (Roche) and phosphatase inhibitors (10 mM NaF, 1 mM Na3VO4, and 20 mM β-glycerophosphate), unless otherwise noted. Lysates were spun at 14,000×g for 10 minutes at 4° C. and supernatant was evaluated for protein content using a Pierce BCA Protein Assay (Thermo Fisher Scientific). 25 to 50 μg of protein was loaded onto 10% SDS-PAGE gels or 4-20% Criterion TGX precast gradient gels (Bio-Rad), transferred to nitrocellulose membranes, and probed with the specified antibodies overnight at 4° C. in 1×TBS-Tween (Tris buffered saline plus 0.02% Tween 20) containing 5% non-fat milk. Immunoblots were visualized using a Bio-Rad ChemiDoc imaging instrument and subsequently processed and quantified using the accompanying Bio-Rad ImageLab software.

p38γ = molecular target: T2, p38γ (Homo sapiens, UniProt P53778); experiment: as above; settings: increasing concentrations
T2 construct: with increasing concentrations of exemplary compound 50 and 46 in MDA-MB-231 cells; endogenous in cells; host or cells: MDA-MB-231
T2 sequence (P53778 whole entry): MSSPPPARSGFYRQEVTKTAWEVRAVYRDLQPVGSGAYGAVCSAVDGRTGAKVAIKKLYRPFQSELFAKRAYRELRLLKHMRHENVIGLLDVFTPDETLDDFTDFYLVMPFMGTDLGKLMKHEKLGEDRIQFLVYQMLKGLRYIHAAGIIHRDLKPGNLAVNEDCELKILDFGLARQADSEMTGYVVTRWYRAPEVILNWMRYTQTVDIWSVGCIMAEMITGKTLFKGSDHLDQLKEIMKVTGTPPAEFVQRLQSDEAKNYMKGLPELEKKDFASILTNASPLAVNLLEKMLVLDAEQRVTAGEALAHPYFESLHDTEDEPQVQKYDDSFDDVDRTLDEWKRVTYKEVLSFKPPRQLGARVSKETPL
Description: as §3, §4, §5

ERK1 = molecular target: T3, ERK1 (Homo sapiens, UniProt P27361); experiment: as above; settings: increasing concentrations
T3 construct: with increasing concentrations of exemplary compound 50 and 46 in MDA-MB-231 cells; endogenous in cells; host or cells: MDA-MB-231
T3 sequence (P27361 whole entry): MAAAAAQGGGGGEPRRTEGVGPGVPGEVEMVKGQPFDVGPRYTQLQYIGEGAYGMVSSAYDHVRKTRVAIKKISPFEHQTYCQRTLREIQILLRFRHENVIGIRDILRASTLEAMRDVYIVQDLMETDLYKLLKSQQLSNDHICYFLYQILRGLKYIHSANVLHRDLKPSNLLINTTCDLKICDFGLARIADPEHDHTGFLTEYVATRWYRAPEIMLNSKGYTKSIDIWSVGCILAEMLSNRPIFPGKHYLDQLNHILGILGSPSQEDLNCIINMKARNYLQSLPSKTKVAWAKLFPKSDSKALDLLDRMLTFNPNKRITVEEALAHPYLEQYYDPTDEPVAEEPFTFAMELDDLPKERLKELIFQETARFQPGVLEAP
Description: as §3, §4, §5

ERK2 = molecular target: T4, ERK2 (Homo sapiens, UniProt P28482); experiment: as above; settings: increasing concentrations
T4 construct: with increasing concentrations of exemplary compound 50 and 46 in MDA-MB-231 cells; endogenous in cells; host or cells: MDA-MB-231
T4 sequence (P28482 whole entry): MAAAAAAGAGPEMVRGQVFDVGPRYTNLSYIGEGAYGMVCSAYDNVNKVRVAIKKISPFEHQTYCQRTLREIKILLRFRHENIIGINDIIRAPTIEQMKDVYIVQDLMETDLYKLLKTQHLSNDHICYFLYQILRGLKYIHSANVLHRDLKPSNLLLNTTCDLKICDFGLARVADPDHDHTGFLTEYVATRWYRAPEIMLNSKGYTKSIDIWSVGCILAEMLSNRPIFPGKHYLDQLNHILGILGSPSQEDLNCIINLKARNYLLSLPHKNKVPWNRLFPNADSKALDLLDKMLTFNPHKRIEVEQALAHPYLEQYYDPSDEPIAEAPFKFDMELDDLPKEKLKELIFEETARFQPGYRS
Description: as §3, §4, §5

JNK1 = experiment: as above; settings: increasing concentrations
Description: as §3, §4, §5

p38β = molecular target: T5, p38β (Homo sapiens, UniProt Q15759); experiment: as above; settings: increasing concentrations
T5 construct: with increasing concentrations of exemplary compound 50 and 46 in MDA-MB-231 cells; endogenous in cells; host or cells: MDA-MB-231
T5 sequence (Q15759 whole entry): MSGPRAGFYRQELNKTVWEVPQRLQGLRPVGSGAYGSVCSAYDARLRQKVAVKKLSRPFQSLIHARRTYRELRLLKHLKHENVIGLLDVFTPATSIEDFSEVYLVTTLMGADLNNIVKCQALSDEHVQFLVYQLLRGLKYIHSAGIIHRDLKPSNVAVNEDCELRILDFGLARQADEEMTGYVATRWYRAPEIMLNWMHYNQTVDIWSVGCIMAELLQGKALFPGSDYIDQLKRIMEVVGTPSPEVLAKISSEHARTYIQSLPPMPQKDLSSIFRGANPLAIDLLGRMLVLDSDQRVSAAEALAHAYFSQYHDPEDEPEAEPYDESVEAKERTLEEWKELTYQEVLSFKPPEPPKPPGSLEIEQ
Description: as §3, §4, §5

p38δ = molecular target: T6, p38δ (Homo sapiens, UniProt O15264); experiment: Cellular assay of target protein degradation (MDA-MB-231 cells, ELISA); settings: for DC50: read-out: p38δDC50/nM [MDA-MB-231]
T6 construct: endogenous in cells; host or cells: MDA-MB-231 (intact cells for degradation; cleared cell lysate for CETSA)
T6 sequence (O15264 1-365): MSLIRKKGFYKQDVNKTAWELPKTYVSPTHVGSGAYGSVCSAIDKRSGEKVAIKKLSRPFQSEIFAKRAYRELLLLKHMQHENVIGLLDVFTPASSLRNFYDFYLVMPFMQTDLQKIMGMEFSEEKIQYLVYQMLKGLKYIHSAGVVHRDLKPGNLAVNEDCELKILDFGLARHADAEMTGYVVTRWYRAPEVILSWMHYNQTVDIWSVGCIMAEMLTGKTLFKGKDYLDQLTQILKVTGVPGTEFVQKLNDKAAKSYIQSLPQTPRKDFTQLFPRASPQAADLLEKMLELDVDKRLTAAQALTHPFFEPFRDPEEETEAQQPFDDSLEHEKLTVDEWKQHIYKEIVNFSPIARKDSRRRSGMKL
Experimental: as §1, §2

T1 sequence (P08581 25-1390): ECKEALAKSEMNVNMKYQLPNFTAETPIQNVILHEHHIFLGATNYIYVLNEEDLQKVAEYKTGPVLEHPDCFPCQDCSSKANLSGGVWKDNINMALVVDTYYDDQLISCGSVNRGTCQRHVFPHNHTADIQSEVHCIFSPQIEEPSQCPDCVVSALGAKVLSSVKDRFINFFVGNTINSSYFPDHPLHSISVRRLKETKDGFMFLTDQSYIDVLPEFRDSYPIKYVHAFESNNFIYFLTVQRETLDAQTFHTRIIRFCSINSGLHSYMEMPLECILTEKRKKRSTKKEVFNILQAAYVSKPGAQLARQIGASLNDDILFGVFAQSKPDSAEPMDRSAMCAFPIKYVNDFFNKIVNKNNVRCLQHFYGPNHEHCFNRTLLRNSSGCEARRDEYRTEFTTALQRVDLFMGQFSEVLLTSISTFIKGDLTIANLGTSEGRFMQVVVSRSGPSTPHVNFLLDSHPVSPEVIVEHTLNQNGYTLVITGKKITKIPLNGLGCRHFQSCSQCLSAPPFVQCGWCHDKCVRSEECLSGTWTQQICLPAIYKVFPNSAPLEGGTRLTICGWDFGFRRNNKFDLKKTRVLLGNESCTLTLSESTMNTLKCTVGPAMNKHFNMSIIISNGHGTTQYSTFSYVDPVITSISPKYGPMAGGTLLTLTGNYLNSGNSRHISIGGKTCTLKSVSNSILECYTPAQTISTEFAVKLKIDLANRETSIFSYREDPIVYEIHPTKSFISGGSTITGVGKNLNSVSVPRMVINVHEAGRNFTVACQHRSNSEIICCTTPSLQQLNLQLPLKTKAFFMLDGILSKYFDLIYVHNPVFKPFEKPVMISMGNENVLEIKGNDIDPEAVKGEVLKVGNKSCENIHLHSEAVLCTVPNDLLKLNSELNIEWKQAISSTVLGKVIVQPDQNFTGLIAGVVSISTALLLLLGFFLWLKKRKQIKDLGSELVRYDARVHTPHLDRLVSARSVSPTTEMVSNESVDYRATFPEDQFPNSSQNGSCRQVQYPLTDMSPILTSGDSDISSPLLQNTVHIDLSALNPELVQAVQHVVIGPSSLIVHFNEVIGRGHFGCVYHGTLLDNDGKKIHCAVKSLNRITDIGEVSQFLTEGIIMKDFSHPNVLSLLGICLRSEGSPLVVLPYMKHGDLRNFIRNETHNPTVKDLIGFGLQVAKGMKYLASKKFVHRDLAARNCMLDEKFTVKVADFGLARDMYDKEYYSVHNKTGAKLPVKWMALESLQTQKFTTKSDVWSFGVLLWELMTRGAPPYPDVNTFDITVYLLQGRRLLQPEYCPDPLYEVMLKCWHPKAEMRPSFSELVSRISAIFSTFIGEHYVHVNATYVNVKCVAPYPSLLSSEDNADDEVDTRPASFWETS

c-Met protein degradation (dose response) (cMET; ELISA)	SMILES	degradation of JNK2 (JNK2)	degradation of p38γ (p38γ)	degradation of ERK1 (ERK1)	degradation of ERK2 (ERK2)	degradation of JNK1 (JNK1)	degradation of p38β (p38β)	Dmax (p38δ)	DC50 (p38δ)	DC50 (cMET)	Dmax (cMET)
significant targeted degradation	COc1cc2c(Oc3ccc(NC(=O)C4(C(=O)Nc5ccc(F)cc5)CC4)cc3F)ccnc2cc1OCCCOCCCOCCC(=O)N[C@H](C(=O)N1C[C@H](O)C[C@H]1C(=O)NCc1ccc(-c2scnc2C)cc1)C(C)(C)C [Example 1]	–	–	–	–	–	–	–	–	–	–
–	COc1cc2c(Oc3ccc(NC(=O)C4(C(=O)Nc5ccc(F)cc5)CC4)cc3F)ccnc2cc1OCCOCCOCCOc1cc(-c2scnc2C)ccc1CNC(=O)[C@@H]1C[C@@H](O)CN1C(=O)[C@H](C(C)C)N1Cc2ccccc2C1=O [compound 46]	lack of degradation	lack of degradation	lack of degradation	lack of degradation	lack of degradation	lack of degradation	93%	84.9 nM	–	–
–	COc1cc2c(Oc3ccc(NC(=O)C4(C(=O)Nc5ccc(F)cc5)CC4)cc3F)ccnc2cc1OCCCCOCCCCOCC(=O)N[C@H](C(=O)N1C[C@H](O)C[C@H]1C(=O)NCc1ccc(-c2scnc2C)cc1)C(C)(C)C [compound 50, N-(3-fluoro-4-((7-(4-(4-(2-(((S)-1-((2S,4R)-4-hydroxy-2-((4-(4-methylthiazol-5-yl)benzyl)carbamoyl)pyrrolidin-1-yl)-3,3-dimethyl-1-oxobutan-2-yl)amino)-2-oxoethoxy)butoxy)buto-xy)-6-methoxyquinolin-4-yl)oxy)phenyl)-N-(4-fluorophenyl)cyclopropane-1,1-dicarboxa-mide]	lack of degradation	lack of degradation	lack of degradation	lack of degradation	lack of degradation	lack of degradation	18%	> 5000 nM	36 nM	88%
